| melting point | SMILES |
| --- | --- |
| 202 to 205 °C | O=S(=O)(Nc1ncc(Cl)nc1OCc1ccc(CNCCO)cc1)c1cccc(Cl)c1Cl [Example 110, 2,3-Dichloro-N-[5-chloro-3-{4-([2-hydroxyethylamino]methyl)phenylmethoxy}-2-pyrazinyl]benzenesulphonamide] |
| 160 to 161 °C | O=S(=O)(Nc1nccnc1OCc1ccc(CO)cc1)c1cccc(Cl)c1Cl [Example 111, 2,3-Dichloro-N-[3-(4-hydroxymethylphenylmethoxy)-2-pyrazinyl]benzenesulphonamide] |
| 120 to 121 °C | COC(=O)c1cnc(NS(=O)(=O)c2cccc(Cl)c2Cl)c(OC)n1 [Example 113, 5-(2,3-Dichlorobenzenesuphonylamino)-6-methoxypyrazine-2-carboxylic acid, methyl ester] |
| 192 to 193 °C | COc1nc(C(C)(C)O)cnc1NS(=O)(=O)c1cccc(Cl)c1Cl [Example 114, 2,3-Dichloro-N-[5-(1-hydroxy-1-methylethyl)-3-methoxy-2-pyrazinyl]benzenesulphonamide] |
| 200 to 205 °C | COc1nc(OCCN)cnc1NS(=O)(=O)c1cccc(Cl)c1Cl [Example 115, N-[5-(2-Aminoethoxy)-3-methoxy-2-pyrazinyl]-2,3-dichlorobenzenesulphonamide] |
| 185 to 190 °C | COc1nc(SCCN)c(Cl)nc1NS(=O)(=O)c1cccc(Cl)c1Cl [Example 116, N-{5-[(2-Aminoethyl)thio]-6-chloro-3-methoxy-2-pyrazinyl}-2,3-dichlorobenzenesulfonamide] |
| 146 to 148 °C | COC(=O)CCSc1cnc(NS(=O)(=O)c2cccc(Cl)c2Cl)c(OC)n1 [Example 117] |
| 146 to 148 °C | COc1nc(Br)c(C)nc1NS(=O)(=O)c1cccc(Cl)c1Cl [Example 118, 2,3-Dichloro-N-[5-bromo-3-methoxy-6-methyl-2-pyrazinyl)benzenesulphonamide] |
| 175 to 177 °C | COc1nc(CO)c(C)nc1NS(=O)(=O)c1cccc(Cl)c1Cl [Example 120, 2,3-Dichloro-N-[5-(hydroxymethyl)-3-methoxy-6-methyl-2-pyrazinyl)benzenesulphonamide] |
| 156 to 157 °C | COc1nc(Cl)cnc1NS(=O)(=O)c1cccc(Cl)c1F [Example 122, 3-Chloro-N-(5-chloro-3-methoxy-2-pyrazinyl)-2-fluorobenzenesulphonamide] |
| 177 to 178 °C | COC(=O)c1nccnc1NS(=O)(=O)c1cccc(Cl)c1Cl [Example 124, 3-{[(2,3-Dichlorophenyl)sulphonyl]amino}pyrazine-2-carboxylic acid, methyl ester] |

Further lines, the compound ahead of its results:

| SMILES | melting point |
| --- | --- |
| O=S(=O)(Nc1ncc(Cl)nc1OCc1ccncc1)c1cccc(Cl)c1Cl [Example 87, 2,3-Dichloro-N-[5-chloro-3-(4-pyridinylmethoxy)-2-pyrazinyl]benzenesulphonamide] | 226 to 229 °C (dec.) |
| O=S(=O)(Nc1ncc(Cl)nc1OCc1ccccn1)c1cccc(Cl)c1Cl [Example 89, 2,3-dichloro-N-[5-chloro-3-(2-pyridinylmethoxy)-2-pyrazinyl]benzenesulphonamide] | 147 to 148 °C |
| CSCCOc1nc(Cl)cnc1NS(=O)(=O)c1cccc(Cl)c1Cl [Example 90, 2,3-Dichloro-N-[5-chloro-3-(2-methylsulphanylethoxy)-2-pyrazinyl]benzenesulphonamide] | 140 to 141 °C |
| CCCCOc1nc(Cl)cnc1NS(=O)(=O)c1cccc(Cl)c1Cl [Example 91, N-(3-Butoxy-5-chloro-2-pyrazinyl)-2,3-dichlorobenzenesulphonamide] | 133 to 134 °C |
| Cc1ncccc1COc1nc(Cl)cnc1NS(=O)(=O)c1cccc(Cl)c1Cl [Example 92, 2,3-Dichloro-N-[5-chloro-3-(2-methyl-3-pyridinylmethoxy)-2-pyrazinyl]benzenesulphonamide] | 214 to 216 °C (dec.) |
| Cc1cccc(COc2nc(Cl)cnc2NS(=O)(=O)c2cccc(Cl)c2Cl)n1 [Example 93, 2,3-Dichloro-N-[S-chloro-3-(6-methyl-2-pyridinylmethoxy)-2-pyrazinyl]benzenesulphonamide] | 158 to 159 °C |
| Cc1c(Cl)cccc1S(=O)(=O)Nc1ncc(Cl)nc1OCc1cccnc1 [Example 95, 3-Chloro-N-[5-chloro-3-(3-pyridinylmethoxy)-2-pyrazinyl]-2-methylbenzenesulphonamide] | 192 to 193 °C |
| O=S(=O)(Nc1ncc(Cl)nc1OCc1cccnc1)c1cccc(Cl)c1F [Example 96, 3-Chloro-N-[5-chloro-3-(3-pyridinylmethoxy)-2-pyrazinyl]-2-fluorobenzenesulphonamide] | 177 to 178 °C |
| COc1ccc(COc2nc(Cl)cnc2NS(=O)(=O)c2cccc(Cl)c2Cl)cc1 [Example 97, 2,3-Dichloro-N-[5-chloro-3-(4-methoxyphenylmethoxy)-2-pyrazinyl]benzenesulphonamide] | 163 to 164 °C |
| O=S(=O)(Nc1nc(Cl)cnc1Br)c1cccc(Cl)c1Cl [Example 98] | 123 to 124 °C |
| O=S(=O)(Nc1nc(Cl)cnc1OCc1cccnc1)c1cccc(Cl)c1Cl [Example 99, 2,3-Dichloro-N-[6-chloro-3-(3-pyridinylmethoxy)-2-pyrazinyl]benzenesulphonamide] | 203 to 204 °C |
| O=S(=O)(Nc1nc(Cl)cnc1OCc1ccccn1)c1cccc(Cl)c1Cl [Example 100, 2,3-Dichloro-N-[6-chloro-3-(2-pyridinylmethoxy)-2-pyrazinyl]benzenesulphonamide] | 201 to 203 °C |
| COC(=O)c1cccc(COc2nc(Cl)cnc2NS(=O)(=O)c2cccc(Cl)c2Cl)c1 [Example 104, 3-[6-Chloro-3-(2,3-dichlorobenzenesulphonylamino)-2-pyrazinyloxymethyl]benzoic acid methyl ester] | 175 to 176 °C |
| O=C(O)c1cccc(COc2nc(Cl)cnc2NS(=O)(=O)c2cccc(Cl)c2Cl)c1 [Example 105, 3-[6-Chloro-3-(2,3-dichlorobenzenesulphonylamino)-2-pyrazinyloxymethyl]benzoic acid] | 218 to 224 °C (dec.) |
| O=S(=O)(Nc1ncc(Cl)nc1OCc1cccc(CO)c1)c1cccc(Cl)c1Cl [Example 106, 2,3-Dichloro-N-[5-chloro-3-(3-hydroxymethylphenylmethoxy)-2-pyrazinyl]benzenesulphonamide] | 162 to 163 °C |
| CNCc1cccc(COc2nc(Cl)cnc2NS(=O)(=O)c2cccc(Cl)c2Cl)c1 [Example 107, 2,3-Dichloro-N-[5-chloro-3-(3-methylaminomethylphenylmethoxy)-2-pyrazinyl]benzenesulphonamide] | 167 to 168 °C |
| O=S(=O)(Nc1ncc(Cl)nc1OCc1cccc(CNCCO)c1)c1cccc(Cl)c1Cl [Example 108, 2,3-Dichloro-N-[5-chloro-3-{3-([2-hydroxyethylamino]methyl)phenylmethoxy}-2-pyrazinyl]benzenesulphonamide] | 196 to 198 °C |
| O=S(=O)(Nc1ncc(Cl)nc1OCc1ccc(CO)cc1)c1cccc(Cl)c1Cl [Example 109, 2,3-Dichloro-N-[5-chloro-3-(4-hydroxymethylphenylmethoxy)-2-pyrazinyl]benzenesulphonamide] | 177 to 178 °C |
